In patent US12251387B2, “Substituted quinoxalines and benzo[c][1,2,5]oxadiazoles as DNA-PK inhibitors” (Vertex Pharmaceuticals Incorporated, priority 2013, dated 2025):

Target: DNA-PK (Homo sapiens, UniProt P78527)
Test: DNA-PK Inhibition Assay (standard radiometric kinase assay, 33P-ATP, peptide substrate)
Format: biochemical
Conditions: radiometric assay, approximately 6 nM DNA-PK, 100 μM ATP, 45 min; fit to competitive tight-binding inhibition; read-out: Ki for the inhibition of DNA-PK
Experimental: Compounds were screened for their ability to inhibit DNA-PK kinase using a standard radiometric assay. Briefly, in this kinase assay the transfer of the terminal ^33P-phosphate in ^33P-ATP to a peptide substrate is interrogated. The assay was carried out in 384-well plates to a final volume of 50 μL per well containing approximately 6 nM DNA-PK, 50 mM HEPES (pH 7.5), 10 mM MgCl2, 25 mM NaCl, 0.01% BSA, 1 mM DTT, 10 μg/mL sheared double-stranded DNA (obtained from Sigma), 0.8 mg/mL DNA-PK peptide (Glu-Pro-Pro-Leu-Ser-Gln-Glu-Ala-Phe-Ala-Asp-Leu-Trp-Lys-Lys-Lys, obtained from American Peptide), and 100 μM ATP. Accordingly, compounds of the invention were dissolved in DMSO to make 10 mM initial stock solutions. Serial dilutions in DMSO were then made to obtain the final solutions for the assay. A 0.75 μL aliquot of DMSO or inhibitor in DMSO was added to each well, followed by the addition of ATP substrate solution containing ^33P-ATP (obtained from Perkin Elmer). The reaction was started by the addition of DNA-PK, peptide and ds-DNA. After 45 min, the reaction was quenched with 25 μL of 5% phosphoric acid. The reaction mixture was transferred to MultiScreen HTS 384-well PH plates (obtained from Millipore), allowed to bind for one hour, and washed three times with 1% phosphoric acid. Following the addition of 50 μL of Ultima Gold™ high efficiency scintillant (obtained from Perkin Elmer), the samples were counted in a Packard TopCount NXT Microplate Scintillation and Luminescence Counter (Packard BioScience). The Ki values were calculated using Microsoft Excel Solver macros to fit the data to the kinetic model for competitive tight-binding inhibition.

Row | SMILES | Ki [nM]
1 | CNC(=O)c1cnc(N[C@H]2CC[C@@H](Oc3cc(N4CCOCC4)cc4nccnc34)CC2)nc1C [Compound 287] | < 100
2 | CN1CCN(c2cnc(N[C@H]3CC[C@@H](Oc4cc(N5CCOCC5)cc5nccnc45)CC3)nc2)CC1 [Compound 579] | < 100
3 | CNC(=O)c1cc(C)nc(N[C@H]2CC[C@@H](Oc3cc(N4CCOCC4)cc4nccnc34)CC2)n1 [Compound 308] | < 100
4 | Fc1c(NC2CCOC2)ncnc1N[C@H]1CC[C@@H](Oc2cc(N3CCOCC3)cc3nccnc23)CC1 (stereo partly shown) [Compound 379] | < 100
5 | c1cc(N[C@H]2CC[C@@H](Oc3cc(N4CCOCC4)cc4nccnc34)CC2)c2c(c1)OCO2 [Compound 339] | < 100
6 | c1cnc2c(O[C@H]3CC[C@@H](Nc4ccc(OC5COC5)cn4)CC3)cc(N3CCOCC3)cc2n1 [Compound 638] | < 100
7 | c1cnc2c(O[C@H]3CC[C@@H](Nc4ccnc5[nH]ccc45)CC3)cc(N3CCOCC3)cc2n1 [Compound 385] | < 100
8 | Cc1cc(N[C@H]2CC[C@@H](Oc3cc(N4CCOCC4)cc4nccnc34)CC2)nn1C [Compound 326] | < 100
9 | c1cnc2c(O[C@H]3CC[C@@H](Nc4cc5[nH]ccc5cn4)CC3)cc(N3CCOCC3)cc2n1 [Compound 540] | < 100
10 | CN1CCN(Cc2nccc(N[C@H]3CC[C@@H](Oc4cc(N5CCOCC5)cc5nccnc45)CC3)n2)CC1 [Compound 484] | < 100
11 | c1cc(N[C@H]2CC[C@@H](Oc3cc(N4CCOCC4)cc4nccnc34)CC2)nc(CN2CCCCC2)n1 [Compound 496] | < 100
12 | CC1(C)CC(c2cnc(N[C@H]3CC[C@@H](Oc4cc(N5CCOCC5)cc5nccnc45)CC3)nc2)CC(C)(C)N1 [Compound 550] | < 100
13 | c1cnc2c(O[C@H]3CC[C@@H](Nc4ncc(CN5CCCC5)cn4)CC3)cc(N3CCOCC3)cc2n1 [Compound 528] | < 100
14 | c1cnc2c(O[C@H]3CC[C@@H](Nc4ncc(OCCN5CCCC5)cn4)CC3)cc(N3CCOCC3)cc2n1 [Compound 509] | < 100
15 | c1cnc(O[C@H]2CC[C@H](Oc3cc(N4CCOCC4)cc4nccnc34)CC2)nc1 [Compound 34, 4-(8-(((trans)-4-(pyrimidin-2-yloxy)cyclohexyl)oxy)quinoxalin-6-yl)morpholine] | < 100
16 | CC(C)(C)OC(=O)c1cc(N[C@H]2CC[C@@H](Oc3cc(N4CCOCC4)cc4nccnc34)CC2)ccc1F [Compound 421] | < 100
17 | c1cc(N2CCOCC2)nc(N[C@H]2CC[C@@H](Oc3cc(N4CCOCC4)cc4nccnc34)CC2)n1 [Compound 548] | < 100

Row | SMILES | Ki [nM]
18 | c1cnc2c(O[C@H]3CC[C@@H](Nc4ccc(OCCN5CCOCC5)cn4)CC3)cc(N3CCOCC3)cc2n1 [Compound 639] | < 100
19 | O=C(N[C@H]1CC[C@@H](Oc2cc(N3CCOCC3)cc3nccnc23)CC1)N1CCCC1 [Compound 415] | < 100
20 | Cc1ncc(-c2cc(N[C@H]3CC[C@@H](Oc4cc(N5CCOCC5)cc5nccnc45)CC3)ncn2)cn1 [Compound 426] | < 100
21 | CCOC1CCN(c2cc(N[C@H]3CC[C@@H](Oc4cc(N5CCOCC5)cc5nccnc45)CC3)ncn2)CC1 [Compound 472] | < 100
22 | Cc1cc(N[C@H]2CC[C@@H](Oc3cc(N4CCOCC4)cc4nccnc34)CC2)n2cnnc2n1 [Compound 500] | < 100
23 | CNC(=O)c1cc(N[C@H]2CC[C@@H](Oc3cc(N4CCOCC4)cc4nccnc34)CC2)ccc1F [Compound 405] | < 100
24 | CCCc1nc(C)cc(N[C@H]2CC[C@@H](Oc3cc(N4CCOCC4)cc4nccnc34)CC2)n1 [Compound 618] | < 100
25 | CN1CCc2cnc(N[C@H]3CC[C@@H](Oc4cc(N5CCOCC5)cc5nccnc45)CC3)nc2C1 [Compound 556] | < 100
26 | COC(c1ccc(N[C@H]2CC[C@@H](Oc3cc(N4CCOCC4)cc4nccnc34)CC2)nc1)C(F)(F)F (stereo partly shown) [Compound 629] | < 100
27 | CNC(=O)c1cc(N[C@H]2CC[C@@H](Oc3cc(N4CC5CC(C4)O5)cc4nccnc34)CC2)ncn1 [Compound 315] | < 100
28 | CNC(=O)c1ccc(N[C@H]2CC[C@@H](Oc3cc(N4CCOCC4)cc4nccnc34)CC2)cn1 [Compound 358] | < 100
29 | COc1nc(Cl)nc(N[C@H]2CC[C@@H](Oc3cc(N4CCOCC4)cc4nccnc34)CC2)n1 [Compound 609] | < 100
30 | c1nc(CN2CCCCC2)cc(N[C@H]2CC[C@@H](Oc3cc(N4CCOCC4)cc4nccnc34)CC2)n1 [Compound 389] | < 100
31 | c1cnc2c(O[C@H]3CC[C@@H](Nc4ncc(OCCN5CCOCC5)cn4)CC3)cc(N3CCOCC3)cc2n1 [Compound 585] | < 100
32 | Cc1nccc(N[C@H]2CC[C@@H](Oc3cc(C4=COCC4)cc4nccnc34)CC2)n1 [Compound 288] | < 100
33 | c1cc(N[C@H]2CC[C@@H](Oc3cc(N4CCOCC4)cc4nccnc34)CC2)nc(CN2CCOCC2)n1 [Compound 503] | < 100

Further lines, results first:

Row | Ki [nM] | SMILES
34 | < 100 | c1cc(N[C@H]2CC[C@@H](Oc3cc(N4CCOCC4)cc4nccnc34)CC2)ncn1 [Compound 486]
35 | < 100 | CC(C)c1cc(N[C@H]2CC[C@@H](Oc3cc(N4CCOCC4)cc4nccnc34)CC2)ncn1 [Compound 652]
36 | < 100 | CN(C)c1ncnc(N[C@H]2CC[C@@H](Oc3cc(N4CCOCC4)cc4nccnc34)CC2)c1F [Compound 512]
37 | < 100 | OCc1cc(N[C@H]2CC[C@@H](Oc3cc(N4CCOCC4)cc4nccnc34)CC2)ncn1 [Compound 424]
38 | < 100 | Fc1cncnc1N[C@H]1CC[C@@H](Oc2cc(N3CCOCC3)cc3nccnc23)CC1 [Compound 531]
39 | < 100 | Clc1ccnc(N[C@H]2CC[C@@H](Oc3cc(N4CCOCC4)cc4nccnc34)CC2)n1 [Compound 532]
40 | < 100 | Cc1ncn2ccnc(N[C@H]3CC[C@@H](Oc4cc(N5CCOCC5)cc5nccnc45)CC3)c12 [Compound 313]
41 | < 100 | Cc1ncnc(N[C@H]2CC[C@@H](Oc3cc(N4CCOCC4)cc4nccnc34)CC2)c1F [Compound 477]
42 | < 100 | Cc1ncc(N[C@H]2CC[C@@H](Oc3cc(N4CCOCC4)cc4nccnc34)CC2)cn1 [Compound 450]
43 | < 100 | c1cc(N[C@H]2CC[C@@H](Oc3cc(N4CCOCC4)cc4nccnc34)CC2)cnn1 [Compound 354]
44 | < 100 | Cc1csc(N[C@H]2CC[C@@H](Oc3cc(N4CCOCC4)cc4nccnc34)CC2)n1 [Compound 284]
45 | < 100 | Cn1ncc2c(N[C@H]3CC[C@@H](Oc4cc(N5CCOCC5)cc5nccnc45)CC3)ncnc21 [Compound 545]
46 | < 100 | FC(F)(F)c1cnc(N[C@H]2CC[C@@H](Oc3cc(N4CCOCC4)cc4nccnc34)CC2)nc1 [Compound 418]
47 | < 100 | CNc1nccc(N[C@H]2CC[C@@H](Oc3cc(N4CCOCC4)cc4nccnc34)CC2)n1 [Compound 454]
48 | < 100 | CN1CCc2c(N[C@H]3CC[C@@H](Oc4cc(N5CCOCC5)cc5nccnc45)CC3)ncnc21 [Compound 473]
49 | < 100 | FC(F)(F)c1cnc(N[C@H]2CC[C@@H](Oc3cc(N4CCOCC4)cc4nccnc34)CC2)cn1 [Compound 366]
50 | < 100 | CCc1nccc(N[C@H]2CC[C@@H](Oc3cc(N4CCOCC4)cc4nccnc34)CC2)n1 [Compound 439]
51 | < 100 | CSc1nc(N[C@H]2CC[C@@H](Oc3cc(N4CCOCC4)cc4nccnc34)CC2)cs1 [Compound 628]
52 | < 100 | FC(F)(F)c1ncc(N[C@H]2CC[C@@H](Oc3cc(N4CCOCC4)cc4nccnc34)CC2)cn1 [Compound 428]
